Reference: US20240218022A1, “ANTI-VISTA MACROCYCLIC PEPTIDES AND COMPOSITIONS” (BRISTOL-MYERS SQUIBB COMPANY, priority 2022, published 2024)
Where two headings read alike, the source gives them in different places. Starred links: 1 amine or outer side, 2 acyl side, 3 side chain; linkers in the order of their positions; H or OH if unused. Positions of bridges follow the written chain, without caps; N, C: chain ends. Non-standard residues stand in square brackets, D forms with d. Residues, ends and D or L forms follow the SMILES beside them. ξ: configuration not given here. Phe(4-COOH) = N[C@@H](Cc1ccc(C(=O)O)cc1)C(=O)O; N(3-phenylpropyl)Gly = O=C(O)CNCCCc1ccccc1; γGlu = O=C(O)[C@H](CCC(=O)[*:2])N[*:1]; 2Nal = N[C@@H](Cc1ccc2ccccc2c1)C(=O)O; βAsp = O=C(O)[C@H](CC(=O)[*:2])N[*:1]; Ile(3ξ) = CCC(C)[C@H](N)C(=O)O; NMeL = CN[C@@H](CC(C)C)C(=O)O; Ahp(2) = CCCCC[C@H](N)C(=O)O; NMeNle = CCCC[C@H](NC)C(=O)O; Tle = CC(C)(C)[C@H](N)C(=O)O; Pip = O=C(O)[C@@H]1CCCCN1; NHexGly = CCCCCCNCC(=O)O; Nle = CCCC[C@H](N)C(=O)O; Orn = NCCC[C@H](N)C(=O)O; Aun = NCCCCCCCCCCC(=O)O; AEEA = NCCOCCOCC(=O)O

Biological target: T1, mouse VISTA (mVISTA) (Mus musculus, UniProt Q9D659)
T1 construct: expressed in transfected cells; host or cells: Human embryonic kidney 293T cells
T1 sequence (Q9D659 33-308): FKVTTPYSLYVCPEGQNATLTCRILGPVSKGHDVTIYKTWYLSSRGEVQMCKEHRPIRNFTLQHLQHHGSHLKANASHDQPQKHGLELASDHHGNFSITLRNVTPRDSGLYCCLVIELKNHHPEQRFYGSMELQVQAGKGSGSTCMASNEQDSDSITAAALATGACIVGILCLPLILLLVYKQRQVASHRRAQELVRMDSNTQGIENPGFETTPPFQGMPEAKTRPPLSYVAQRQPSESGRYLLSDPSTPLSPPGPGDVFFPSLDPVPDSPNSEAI
Assay: Cell-Based Binding High-Content Assay For mVISTA (HC CBA mVISTA)
Method in brief: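 Competition of compound with a biotinylated peptide (final 2 nM, 30 min at RT) for binding to mVISTA on 293T cells, run under no-wash or wash (1 h compound preincubation then removal) formats. Readout by Alexa 647–streptavidin imaging on a high-content platform; four-parameter logistic fit gave IC50.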

[1] = cell-based binding high-content assay, read-out: HC CBA miPrISTA IC50
[2] = cell-based binding high-content assay, mVISTA, the 16th table, read-out: HC CBA mVISTA IC50
[3] = cell-based binding high-content assay, mVISTA, read-out: HC CBA miPr ISTA IC50
[4] = 293T cells expressing mouse VISTA, competition with biotinylated peptide (2 nM), read-out: HC CBA mVISTA IC50

Molecule `CCCCCCN1CC(=O)N[C@@H](Cc2ccc(O)cc2)C(=O)N[C@@H](CCCC)C(=O)N[C@@H](CC(N)=O)C(=O)N[C@@H](CCCNC(=N)N)C(=O)N[C@@H](CC(C)C)C(=O)N[C@@H](CCCCC)C(=O)N2CCC[C@H]2C(=O)N[C@@H](C(C)C)C(=O)N[C@@H](CC(=O)O)C(=O)N[C@H](C(=O)NCCOCCOCC(=O)N[C@@H](CC(=O)O)C(=O)NCCOCCOCC(=O)NCCCCCCCCCCC(=O)O)CSCC(=O)N[C@@H](Cc2cccc(C)c2)C(=O)N[C@@H](Cc2c[nH]c3ccccc23)C(=O)N[C@@H](CC(=O)O)C1=O` (stereo in doubt) [compound 2286] has an IC50 [1] of 25.3 nM.
For `CCCCCCN1CC(=O)N[C@@H](Cc2ccc(O)cc2)C(=O)N[C@@H](CC(C)C)C(=O)NCC(=O)N[C@@H](CCCNC(=N)N)C(=O)N[C@@H](CC(C)C)C(=O)N[C@@H](CCCCC)C(=O)N2CCC[C@H]2C(=O)N[C@@H](C(C)C)C(=O)N[C@@H](CO)C(=O)N[C@H](C(=O)NCC(=O)O)CSCC(=O)N[C@@H](Cc2ccc3ccccc3c2)C(=O)N[C@@H](Cc2ccc(O)cc2)C(=O)N[C@@H](CC(=O)O)C1=O` [Ex 1274] ({CH2CO}-[2Nal]YD[NHexGly]YLGRL[Ahp(2)]PVSCG-OH; thioether N-14), the IC50 [2] was 32 nM.
`CCCCCCN1CC(=O)N[C@@H](Cc2ccc(O)cc2)C(=O)N[C@@H](CCCC)C(=O)NCC(=O)N[C@@H](CCCNC(=N)N)C(=O)N[C@@H](CC(C)C)C(=O)N[C@@H](CCCCC)C(=O)N2CCC[C@H]2C(=O)N[C@@H](C(C)C)C(=O)N[C@@H](CO)C(=O)N[C@H](C(=O)NCC(N)=O)CSCC(=O)N[C@@H](Cc2ccc3ccccc3c2)C(=O)N[C@@H](Cc2ccc(O)cc2)C(=O)N[C@@H](CC(=O)O)C1=O` [Ex 1276] ({CH2CO}-[2Nal]YD[NHexGly]Y[Nle]GRL[Ahp(2)]PVSCG-NH2; thioether N-14) gave an IC50 [2] of 40.6 nM.
For `CCCCCCN1CC(=O)N[C@@H](Cc2ccc(O)cc2)C(=O)N[C@@H](CCCC)C(=O)N[C@@H](CC(=O)O)C(=O)N[C@@H](CCCNC(=N)N)C(=O)N[C@@H](CC(C)C)C(=O)N[C@@H](CCCCC)C(=O)N2CCC[C@H]2C(=O)N[C@@H](C(C)C)C(=O)N[C@@H](CO)C(=O)N[C@H](C(=O)NCC(=O)O)CSCC(=O)N[C@@H](Cc2ccccc2)C(=O)N[C@@H](Cc2c[nH]c3ccccc23)C(=O)N[C@@H](CC(=O)O)C1=O` [Example 1356] ({CH2CO}-FWD[NHexGly]Y[Nle]DRL[Ahp(2)]PVSCG-OH; thioether N-14), the IC50 (read-out: HC CBA mVISTA IC50) was 28.7 nM.
Molecule `CCCCCCN1CC(=O)N[C@@H](Cc2ccc(O)cc2)C(=O)N[C@@H](CC(C)C)C(=O)N[C@@H](CC(N)=O)C(=O)N[C@@H](CCCNC(=N)N)C(=O)N(C)[C@@H](CC(C)C)C(=O)N[C@@H](CCCCC)C(=O)N2CCC[C@H]2C(=O)N[C@@H](C(C)(C)C)C(=O)N[C@@H](CC(=O)O)C(=O)N[C@H](C(=O)N[C@@H](CC(=O)NCCOCCOCC(=O)N[C@@H](CC(=O)O)C(=O)NCCOCCOCC(=O)NCCCCCCCCCCC(=O)O)C(=O)O)CSCC(=O)N[C@@H](Cc2ccccc2)C(=O)N[C@@H](Cc2ccc(O)cc2)C(=O)N[C@@H](CC(=O)O)C1=O` [compound 2026] ({CH2CO}-FYD[NHexGly]YLNR[NMeL][Ahp(2)]P[Tle]DC[βAsp][AEEA]D[AEEA][Aun]-OH; thioether N-14) has an IC50 [3] of 17.5 nM.
Molecule `CCCCCCN1CC(=O)N[C@@H](Cc2ccc(O)cc2)C(=O)N[C@@H](CCCC)C(=O)N[C@@H](CC(=O)O)C(=O)N[C@@H](CCCN)C(=O)N[C@@H](CC(C)C)C(=O)N[C@@H](CCCCC)C(=O)N2CCC[C@H]2C(=O)N[C@@H](C(C)C)C(=O)N[C@@H](CC(=O)O)C(=O)N[C@H](C(=O)N[C@@H](CC(=O)O)C(N)=O)CSCC(=O)N[C@@H](Cc2ccccc2)C(=O)N[C@@H](Cc2c[nH]c3ccccc23)C(=O)N[C@@H](CC(=O)O)C1=O` [Example 1353] ({CH2CO}-FWD[NHexGly]Y[Nle]D[Orn]L[Ahp(2)]PVDCD-NH2; thioether N-14) has an IC50 (read-out: HC CBA mVISTA IC50) of 11.3 nM.
For `CCCCCCN1CC(=O)N[C@@H](Cc2ccc(O)cc2)C(=O)N[C@@H](CCCC)C(=O)N[C@@H](CC(N)=O)C(=O)N[C@@H](CCCNC(=N)N)C(=O)N(C)[C@@H](CC(C)C)C(=O)N[C@@H](CCCCC)C(=O)N2CCC[C@H]2C(=O)N[C@@H](C(C)C)C(=O)N[C@@H](CO)C(=O)N[C@H](C(=O)NCCOCCOCC(=O)N[C@@H](CC(=O)O)C(=O)NCCOCCOCC(=O)NCCCCCCCCCCC(=O)O)CSCC(=O)N[C@@H](Cc2ccccc2)C(=O)N[C@@H](Cc2c[nH]c3ccccc23)C(=O)N[C@@H](CC(=O)O)C1=O` (stereo in doubt) [compound 2314], the IC50 [1] was 34.6 nM.
Work on `CCCCCCN1CC(=O)N[C@@H](Cc2ccc(O)cc2)C(=O)N[C@@H](CC(C)C)C(=O)N[C@@H](CC(N)=O)C(=O)N[C@@H](CCCNC(=N)N)C(=O)N(C)[C@@H](CCCC)C(=O)N[C@@H](CCCCC)C(=O)N2CCC[C@H]2C(=O)N[C@@H](C(C)(C)C)C(=O)N[C@@H](CC(=O)O)C(=O)N[C@H](C(=O)N[C@@H](CC(=O)NCCOCCOCC(=O)N[C@@H](CC(=O)O)C(=O)NCCOCCOCC(=O)NCCCCCCCCCCC(=O)O)C(=O)O)CSCC(=O)N[C@@H](Cc2ccccc2)C(=O)N[C@@H](Cc2ccc(O)cc2)C(=O)N[C@@H](CC(=O)O)C1=O` [compound 2029] ({CH2CO}-FYD[NHexGly]YLNR[NMeNle][Ahp(2)]P[Tle]DC[βAsp][AEEA]D[AEEA][Aun]-OH; thioether N-14) yielded an IC50 [3] of 17.5 nM.
With `CCCCCCN1CC(=O)N[C@@H](Cc2ccc(O)cc2)C(=O)N[C@@H](CC(C)C)C(=O)N[C@@H](CC(N)=O)C(=O)N[C@@H](CCCN)C(=O)N(C)[C@@H](CCCC)C(=O)N[C@@H](CCCCC)C(=O)N2CCC[C@H]2C(=O)N[C@@H](C(C)(C)C)C(=O)N[C@@H](CO)C(=O)N[C@H](C(=O)N[C@@H](CC(=O)NCCOCCOCC(=O)N[C@@H](CC(=O)O)C(=O)NCCOCCOCC(=O)NCCCCCCCCCCC(=O)O)C(=O)O)CSCC(=O)N[C@@H](Cc2ccc(C(=O)O)cc2)C(=O)N[C@@H](Cc2ccc(O)cc2)C(=O)N[C@@H](CC(=O)O)C1=O` [compound 2047] ({CH2CO}-[Phe(4-COOH)]YD[NHexGly]YLN[Orn][NMeNle][Ahp(2)]P[Tle]SC[βAsp][AEEA]D[AEEA][Aun]-OH; thioether N-14) the IC50 [3] was 48.8 nM.
`CCCCC[C@@H]1NC(=O)[C@H](CCCC)N(C)C(=O)[C@H](CCCNC(=N)N)NC(=O)[C@H](CC(N)=O)NC(=O)[C@H](CC(C)C)NC(=O)[C@H](Cc2ccc(O)cc2)NC(=O)CN(CCCc2ccccc2)C(=O)[C@H](CC(=O)O)NC(=O)[C@H](Cc2ccc(O)cc2)NC(=O)[C@H](Cc2ccccc2)NC(=O)CSC[C@@H](C(=O)NCC(N)=O)NC(=O)[C@H](CO)NC(=O)[C@H](C(C)C)NC(=O)[C@@H]2CCCN2C1=O` [Example 1086] ({CH2CO}-FYD[N(3-phenylpropyl)Gly]YLNR[NMeNle][Ahp(2)]PVSCG-NH2; thioether N-14) showed an IC50 [4] of 40.7 nM.
In the case of `CCCCCCN1CC(=O)N[C@@H](Cc2ccc(O)cc2)C(=O)N[C@@H](CCCC)C(=O)N[C@@H](CC(N)=O)C(=O)N[C@@H](CCCNC(=N)N)C(=O)N(C)[C@@H](CCCC)C(=O)N[C@@H](CCCCC)C(=O)N2CCCC[C@H]2C(=O)N[C@@H](C(C)CC)C(=O)N[C@@H](CO)C(=O)N[C@H](C(=O)N[C@@H](CC(=O)NCCOCCOCC(=O)NCCCCCCCCCCC(=O)O)C(=O)O)CSCC(=O)N[C@@H](Cc2ccccc2)C(=O)N[C@@H](Cc2c[nH]c3ccccc23)C(=O)N[C@@H](CC(=O)O)C1=O` (some centres unmarked) [Example 2182] ({CH2CO}-FWD[NHexGly]Y[Nle]NR[NMeNle][Ahp(2)][Pip][Ile(3ξ)]SC[βAsp][AEEA][Aun]-OH; thioether N-14), the IC50 (read-out: HC CBA mVISTA IC50) is reported as 30.9 nM.
Molecule `CCCCCCN1CC(=O)N[C@@H](Cc2ccc(O)cc2)C(=O)N[C@@H](CC(C)C)C(=O)N[C@@H](CC(N)=O)C(=O)N[C@@H](CCCNC(=N)N)C(=O)N[C@@H](CC(C)C)C(=O)N[C@@H](CCCCC)C(=O)N2CCC[C@H]2C(=O)N[C@@H](C(C)C)C(=O)N[C@@H](CO)C(=O)N[C@H](C(=O)NCC(=O)O)CSCC(=O)N[C@@H](Cc2ccccc2)C(=O)N[C@@H](Cc2ccc(O)cc2)C(=O)N[C@@H](CC(=O)O)C1=O` [Example 1043] ({CH2CO}-FYD[NHexGly]YLNRL[Ahp(2)]PVSCG-OH; thioether N-14) has an IC50 [4] of 17.7 nM.
For `CCCCCCN1CC(=O)N[C@@H](Cc2ccc(O)cc2)C(=O)N[C@@H](CC(C)C)C(=O)N[C@@H](CC(N)=O)C(=O)N[C@@H](CCCN)C(=O)N(C)[C@@H](CCCC)C(=O)N[C@@H](CCCCC)C(=O)N2CCC[C@H]2C(=O)N[C@@H](C(C)(C)C)C(=O)N[C@@H](CO)C(=O)N[C@H](C(=O)NCCOCCOCC(=O)N[C@@H](CCC(=O)NCCOCCOCC(=O)NCCCCCCCCCCC(=O)O)C(=O)O)CSCC(=O)N[C@@H](Cc2ccccc2)C(=O)N[C@@H](Cc2c[nH]c3ccccc23)C(=O)N[C@@H](CC(=O)O)C1=O` [compound 2280] ({CH2CO}-FWD[NHexGly]YLN[Orn][NMeNle][Ahp(2)]P[Tle]SC[AEEA][γGlu][AEEA][Aun]-OH; thioether N-14), the IC50 (read-out: HC CBA mVISTA IC50) was 45.5 nM.
`CCCCCCN1CC(=O)N[C@@H](Cc2ccc(O)cc2)C(=O)N[C@@H](CCCC)C(=O)N[C@@H](CC(N)=O)C(=O)N[C@@H](CCCNC(=N)N)C(=O)N(C)[C@@H](CCCC)C(=O)N[C@@H](CCCCC)C(=O)N2CCC[C@H]2C(=O)N[C@@H](C(C)C)C(=O)N[C@@H](CO)C(=O)N[C@H](C(=O)NCC(=O)O)CSCC(=O)N[C@@H](Cc2ccc3ccccc3c2)C(=O)N[C@@H](Cc2c[nH]c3ccccc23)C(=O)N[C@@H](CC(=O)O)C1=O` [compound 1247] ({CH2CO}-[2Nal]WD[NHexGly]Y[Nle]NR[NMeNle][Ahp(2)]PVSCG-OH; thioether N-14) was tested, and the IC50 (cell-based binding high-content assay, mVISTA, the 15th table, read-out: HC CBA mVISTA IC50) was 35.2 nM.
